From patent US5137711A, “Paramagnetic DTPA and EDTA alkoxyalkylamide complexes as MRI agents” (Mallickrodt Medical, Inc., priority 1989, dated 1992)

System: ICR mice
Test: acute intravenous toxicity in ICR mice
Format: in vivo
Method: The acute intravenous toxicity of the compound of Example II was determined as follows: ICR mice, at 1 to 4 per dose level, received single intravenous injections of the test substance via a lateral tail vein at the rate of approximately 1 ml/minute. The test substances were at concentrations chosen to result in dose volumes of 5 to 75 ml/kg body weight. Dosing began at a volume of 10 ml/kg. Dose adjustments up or down were made to closely bracket the estimated LD50 with 4 animals per group (2 males and 2 females). Observations of the mice were recorded at times 0, 0.5, 1,2,4 and 24 hours and once daily thereafter for up to 7 days post injection. On the 7th day post injection, the mice were euthanized, weighed and necropsied. Abnormal tissues were noted. At this time a decision was made as to whether any histopathology was to be performed and whether or not the tissues should be retained. Necropsies were also performed on mice expiring after 24 hours post-injection, except for dead mice found on the weekends The LD50 values, along with 95% CI were calculated using a modified Behrens-Reed-Meunch method. The results for the complex of Example II are reported below:
Sex and Weight Range of Mice: Males(18.0-20.3 g) Females (19.0-21.7 g)

SMILES: COCCNC(=O)CN(CCN(CCN(CC(=O)[O-])CC(=O)NCCOC)CC(=O)[O-])CC(=O)[O-].[Gd+3] [Example II, {N,N"-Bis[N-(2-methoxyethyl)-carbamoylmethyl]diethylenetriamine-N,N',N"-triaceto} gadolinium (III)]
- Body weight of surviving mice (7-day post-injection period, i.v.): failed to gain weight
- i.v. toxicity (overall, in words) (preliminary tests, mice): low order of i.v. toxicity
